22 molecules from US5650428A, “Arylsulfonamide derivative and pharmaceutical compositions and use thereof” (NKK Corporation, priority 1993, dated 1997) can be followed below.

Molecules are shown by their SMILES.

The target in test [1] is T1, thromboxane A2 (TxA2) receptor (Cavia porcellus, UniProt A0A286Y4I8).
T1 construct: to obtain washed platelets; from tissue; host or cells: washed platelets of male Hartley guinea pigs
T1 sequence (A0A286Y4I8 1-347): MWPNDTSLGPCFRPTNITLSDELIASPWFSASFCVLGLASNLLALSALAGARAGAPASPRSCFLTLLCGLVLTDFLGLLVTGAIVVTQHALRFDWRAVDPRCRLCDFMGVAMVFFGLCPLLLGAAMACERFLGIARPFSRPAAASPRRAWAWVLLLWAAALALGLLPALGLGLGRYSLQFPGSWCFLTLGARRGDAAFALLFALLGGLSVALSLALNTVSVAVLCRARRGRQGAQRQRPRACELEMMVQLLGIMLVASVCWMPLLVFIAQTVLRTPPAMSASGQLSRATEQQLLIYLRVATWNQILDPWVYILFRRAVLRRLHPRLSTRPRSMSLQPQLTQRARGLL
Kind of test: TxA2 antagonist action by binding assay. Particulars: washed guinea pig platelets, 1 nM [3H]-SQ29,548, 45 minutes at 25° C. The method, then: (1) TxA2 antagonist action by binding assay Guinea pigs (Hartley; male; body weight=approximately 500 g) were anesthetized with ether, and the blood was collected into sodium citrate (final concentration=0.38%). The preparation of platelets was carried out at room temperature. The platelet rich plasma was obtained by centrifugation at 980 rpm for 10 minutes. One tenth (1/10) amount of 77 mM-EDTA-Na (pH 7.4) was added to the platelet rich plasma, and the mixture was centrifuged for 10 minutes at 3000 rpm. The suspension was again centrifuged at 3000 rpm for 10 minutes. The precipitate was further resuspended in a suspension buffer (2) shown in Table 2 to obtain washed platelets. The number of platelets was counted by an automatic blood cell counter (Sysmex Microcellcounter F-800) and the sample was diluted with the suspension buffer to 4×10^8 cells/ml. The platelets, sample solution and labeled compounds were placed into plastic tubes in amounts (volumes) shown in the following Table 3, incubated for 45 minutes at 25° C., and then the mixture was filtered using a cell harvester (Brandel cell harvester M-24R) by a glass fiber filter (Whatman GF/B). After the filter was sufficiently dried, the scintillation was counted by a scintillation counter (Beckman LS5000TD). IC50 was calculated from (binding)/(control binding) ratio in the presence of an antagonist. [table 3: the next 10 blocks are its lines as printed, fixed-width]

Test [2] concerns rat platelet. Briefly: Inhibitory activity of aggregation in rat platelet. Conditions: rat platelet rich plasma, arachidonic acid (final concentration 0.5 mM) as inducer; read-out: C: Inhibitory activity of aggregation in rat platelet (IC50; μM). The test is classed as cell-based. In outline:
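Platelet-rich plasma was prepared from citrated (0.38% final) rat abdominal arterial blood and preincubated 1 min at 37°C. Compound was added 2 min before arachidonic acid (0.5 mM final). Light transmission change was recorded for 5 min.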

The target in test [3] is T2, isolated rat artery (thoracic aorta) (Rattus norvegicus, UniProt P34978).
T2 construct: the thoracic aorta was quickly removed; from tissue; host or cells: thoracic aorta rings of male Wistar rats, endothelium 'gently cleaned'
T2 sequence (P34978 1-341): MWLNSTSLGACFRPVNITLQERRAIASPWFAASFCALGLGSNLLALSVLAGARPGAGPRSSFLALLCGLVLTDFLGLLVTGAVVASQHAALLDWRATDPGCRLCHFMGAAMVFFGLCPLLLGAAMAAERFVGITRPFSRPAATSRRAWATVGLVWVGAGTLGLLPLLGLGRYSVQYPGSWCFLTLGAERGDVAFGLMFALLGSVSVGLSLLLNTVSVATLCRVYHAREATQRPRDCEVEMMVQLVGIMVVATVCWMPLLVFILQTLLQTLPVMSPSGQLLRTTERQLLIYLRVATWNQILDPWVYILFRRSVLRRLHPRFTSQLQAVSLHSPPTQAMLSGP
Kind of test: Inhibitory activity of vasoconstriction of isolated rat artery. Type of test: cell-based. Particulars: pA2; rat thoracic aorta ring preparation, 37° C.; read-out: B: Inhibitory activity of vasoconstriction (rat artery) (pA2) (converted). Here is the method: (2) Inhibitory Activity of Vasoconstriction of Isolated Rat Artery
Rats (Wistar; male; body weight=250-300 g) were stunned by a blow to the head and exsanguinated. Then, the thoracic aorta was quickly removed, and the connective tissue and the endothelium were gently cleaned and then ring preparation was cut. The preparations were suspended in a 25 ml organ bath which was maintained at 37° C. under an aeration of 95% O2 -5% CO2. An initial tension of 1.5 g was applied and preincubation was performed for 60 minutes. The organ bath was filled with Krebs-Henselait solution (NaCl=118, KCl=4.7, CaCl2 2.55, MgSO4 =1.18, KH2 PO4 =1.18, NaHCO3 =24.88, glucose=11.1). The constriction of the samples was ionotropicaly measured using an isometric transducer (UL-10GR, Minebea) and an amplifier (6M92, NEC SANEI) and recorded by a recticorder (RECTI-HORIZ-8K, NEC SANEI).

The IC50 is the midpoint of a concentration-inhibition curve. Take `CSCCC(NS(=O)(=O)c1ccc(Cl)cc1)C(=O)Nc1ccc(CC(=O)O)cc1` (racemic) [Example 233, (RS)-N-(4-(carboxymethyl)phenyl)-2-(4-chlorobenzenesulfonylamino)-4-methylthiobutanamide]: the IC50 in test [1] and in test [2] was 0.17 µM throughout.
With `CCSCCC(NS(=O)(=O)c1ccc(Cl)cc1)C(=O)Nc1ccc(CC(=O)O)cc1` (racemic) [Example 242, (RS)-N-(4-(carboxymethyl)phenyl)-2-(4-chlorobenzenesulfonylamino)-4-ethylthiobutanamide], the IC50 in test [1] is 0.032 µM; in test [2] it was 0.16 µM.
The corresponding values for `CCSCCC(NS(=O)(=O)c1ccc(Cl)cc1)C(=O)Nc1ccc(CCC(=O)O)cc1` (racemic) [Example 244, (RS)-N-(4-(2-carboxyethyl)phenyl)-2-(4-chlorobenzenesulfonylamino)-4-ethylthiobutanamide] are 0.29 µM and 1.6 µM.
Taken in the same sequence, the figures for `O=C(O)Cc1ccc(NC(=O)C(Cc2ccccc2)NS(=O)(=O)c2ccc(Cl)cc2)cc1` (racemic) [Example 247, (RS)-N-(4-(carboxymethyl)phenyl)-2-(4-chlorobenzenesulfonylamino)-3-phenylpropanamide] were 0.046 µM and 0.54 µM.
`O=C(O)CCc1ccc(NC(=O)C(Cc2ccccc2)NS(=O)(=O)c2ccc(Cl)cc2)cc1` (racemic) [Example 249, (RS)-N-(4-(2-carboxyethyl)phenyl)-2-(4-chlorobenzenesulfonylamino)-3-phenylpropanamide]: the values for the IC50 in test [1] and in test [2] were 0.024 µM and 0.18 µM, respectively.
Taken in the same sequence, the figures for `O=C(O)Cc1ccc(NC(=O)C(Cc2ccccc2)NS(=O)(=O)c2ccc(Br)cc2)cc1` (racemic) [Example 251, (RS)-2-(4-bromobenzenesulfonylamino)-N-(4-(carboxymethyl)phenyl)-3-phenylpropanamide] were 0.012 µM and 0.17 µM.
The corresponding values for `O=C(O)Cc1ccc(NC(=O)C(CC2CCCCC2)NS(=O)(=O)c2ccc(Cl)cc2)cc1` (racemic) [Example 260, (RS)-N-(4-(carboxymethyl)phenyl)-2-(4-chlorobenzenesulfonylamino)-3-cyclohexylpropanamide] are 0.06 µM and 0.89 µM.
With `O=C(O)c1ccc(NC(=O)[C@H](COC2CCCCO2)NS(=O)(=O)c2ccc(Cl)cc2)cc1` (stereo partly drawn) [Example 39, (S)-N-(4-carboxyphenyl)-2-(4-chlorobenzenesulfonylamino)-3-(tetrahydropyran-2-yloxy)propanamide], the Kb in test [3] was 12.6 nM. Moreover, the IC50 in test [1] was determined as 0.2 µM.
`O=C(O)c1cccc(NC(=O)[C@H](COC2CCCCO2)NS(=O)(=O)c2ccc(Cl)cc2)c1` (stereo partly drawn) [Example 43, (S)-N-(3-carboxyphenyl)-2-(4-chlorobenzenesulfonylamino)-3-(tetrahydropyran-2-yloxy)propanamide]: the Kb in test [3] was 41.7 nM.
Turning to `CCCC[C@H](NS(=O)(=O)c1ccc(Cl)cc1)C(=O)Nc1ccc(CC(=O)O)cc1` [Example 223, (S)-N-(4-(carboxymethyl)phenyl)-2-(4-chlorobenzenesulfonylamino)hexanamide], the figures for the IC50 in test [1] and in test [2] were 0.13 µM and 0.17 µM, respectively.
Taken in the same sequence, the figures for `CCCC[C@@H](NS(=O)(=O)c1ccc(Cl)cc1)C(=O)Nc1ccc(CC(=O)O)cc1` [Example 224, (R)-N-(4-(carboxymethyl)phenyl)-2-(4-chlorobenzenesulfonylamino)hexanamide] were 48.2 µM and 3.4 µM.
The corresponding values for `CSCC[C@H](NS(=O)(=O)c1ccc(Cl)cc1)C(=O)Nc1ccc(CC(=O)O)cc1` [Example 234, (S)-N-(4-(carboxymethyl)phenyl)-2-(4-chlorobenzenesulfonylamino)-4-methylthiobutanamide] are 0.052 µM and 0.17 µM.
Taken in the same sequence, the figures for `CSCC[C@@H](NS(=O)(=O)c1ccc(Cl)cc1)C(=O)Nc1ccc(CC(=O)O)cc1` [Example 235, (R)-N-(4-(carboxymethyl)phenyl)-2-(4-chlorobenzenesulfonylamino)-4-methylthiobutanamide] were 22 µM and 17.1 µM.
On to `CSCC[C@H](NS(=O)(=O)c1ccc(Cl)cc1)C(=O)Nc1ccc(CCC(=O)O)cc1` [Example 237, (S)-N-(4-(2-carboxyethyl)phenyl)-2-(4-chlorobenzenesulfonylamino)-4-methylthiobutanamide], for which the IC50 in test [1] was found to be 0.15 µM; in test [2], 0.3 µM.
Taken in the same sequence, the figures for `CSCC[C@H](NS(=O)(=O)c1ccc(Br)cc1)C(=O)Nc1ccc(CC(=O)O)cc1` [Example 239, (S)-2-(4-bromobenzenesulfonylamino)-N-(4-(carboxymethyl)phenyl)-4-methylthiobutanamide] were 0.026 µM and 0.055 µM.
Turning to `CSCC[C@H](NS(=O)(=O)c1ccc(Br)cc1)C(=O)Nc1ccc(CCC(=O)O)cc1` [Example 240, (S)-2-(4-bromobenzenesulfonylamino)-N-(4-(2-carboxyethyl)phenyl)-4-methylthiobutanamide], the IC50 amounted to 0.099 µM in test [1] and 0.17 µM in test [2].
For the molecule `CSCC[C@H](NS(=O)(=O)c1ccc(Br)cc1)C(=O)Nc1cccc(C(=O)O)c1` [Example 241, (S)-2-(4-bromobenzenesulfonylamino)-N-(3-carboxyphenyl)-4-methylthiobutanamide], the IC50 in test [1] worked out at 0.014 µM; in test [2] it was 0.053 µM.
In the case of `O=C(O)Cc1ccc(NC(=O)[C@H](Cc2ccccc2)NS(=O)(=O)c2ccc(Cl)cc2)cc1` [Example 248, (S)-N-(4-(carboxymethyl)phenyl)-2-(4-chlorobenzenesulfonylamino)-3-phenylpropanamide], the IC50 turned out to be 0.012 µM in test [1] and 0.053 µM in test [2].
The corresponding values for `O=C(O)CCc1ccc(NC(=O)[C@H](Cc2ccccc2)NS(=O)(=O)c2ccc(Cl)cc2)cc1` [Example 250, (S)-N-(4-(2-carboxyethyl)phenyl)-2-(4-chlorobenzenesulfonylamino)-3-phenylpropanamide] are 0.029 µM and 0.17 µM.
The corresponding values for `O=C(O)Cc1ccc(NC(=O)[C@H](Cc2ccccc2)NS(=O)(=O)c2ccc(Br)cc2)cc1` [Example 252, (S)-2-(4-bromobenzenesulfonylamino)-N-(4-(carboxymethyl)phenyl)-3-phenylpropanamide] are 0.0071 µM and 0.055 µM.
The corresponding values for `O=C(O)CCc1ccc(NC(=O)[C@H](Cc2ccccc2)NS(=O)(=O)c2ccc(Br)cc2)cc1` [Example 254, (S)-2-(4-bromobenzenesulfonylamino)-N-(4-(2-carboxyethyl)phenyl)-3-phenylpropanamide] are 0.005 µM and 0.051 µM.
`O=C(O)c1cccc(NC(=O)[C@H](Cc2ccccc2)NS(=O)(=O)c2ccc(Br)cc2)c1` [Example 257, (S)-2-(4-bromobenzenesulfonylamino)-N-(3-carboxyphenyl)-3-phenylpropanamide]: the IC50 was determined as 0.0087 µM in test [1] and 0.17 µM in test [2].
